Results on 9 compounds are retold here after PubChem BioAssay (NCI).

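Dose response: 5 concentrations. Exposure: 48 h. Format: 96-well plates. Endpoint: linear interpolation; highest concentration if not reached. Definition used: TGI = concentration required for complete inhibition of growth.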

What all share (experiment): NCI-60 cell line screen, 48 h
Assay [1] relates to SNB-19 CNS.
Assay [2] concerns OVCAR-8 ovarian.
The test system of assay [3] is HOP-92 NSCLC.
Assay [4] relates to SK-MEL-5 melanoma.
The subject of assay [5] is SF-268 CNS.
Assay [6] deals with OVCAR-4 ovarian.
The test system of assay [7] is CAKI-1 renal.
In assay [8] the test system is SK-MEL-28 melanoma.
For assay [9], the system named is PC-3 prostate.
Assay [10] deals with SNB-75 CNS.
Assay [11] relates to COLO 205 colon.
Assay [12] relates to NCI/ADR-RES ovarian.
Assay [13] deals with MALME-3M melanoma.
Assay [14] concerns HOP-62 NSCLC.
Assay [15] concerns T-47D breast.
Assay [16] relates to SR leukemia.

As for `Clc1ccc2c(c1)CC1C[N+]3=C(CCCCC3)C1=C2` (configuration not stated), the TGI in assay [1] was greater than 100 µM; in assay [2], greater than 100 µM; in [3], 95.2 µM; in assay [4], greater than 100 µM; in assay [5], greater than 100 µM; in [6] it was greater than 100 µM. For the same compound, the TGI is greater than 100 µM in assay [7]; greater than 100 µM in assay [8]; greater than 100 µM in [9]; 4.56 µM in assay [10]; greater than 100 µM in assay [11]; greater than 100 µM in assay [12]. Moreover, the TGI in assay [13], in [14] and in assay [15] was greater than 100 µM throughout.
`CCCc1cn2c(/C=N/N=C(N)N)c(-c3ccc([N+](=O)[O-])cc3)nc2s1`: the TGI in assay [1] was found to be 2.9 µM; in assay [2] it was 3.21 µM; in [3], 74 µM; in assay [4] it was 54 µM; in [7], 3.1 µM; in [8], 4.66 µM. The TGI in [9] was determined as 7.01 µM; in [11], 1.19 µM; in assay [13] it was 3.86 µM; in assay [14], 3.16 µM; in [15], 2.71 µM.
As for `c1cc2cc(Cc3ccc4[nH]ccc4c3)ccc2[nH]1`, the TGI in [1] was determined as 47.5 µM; in assay [3] it was 34.9 µM; in assay [4] it was 30 µM; in [16], 39.2 µM; in assay [5], 55.7 µM; in assay [6], 28.7 µM. The TGI came out at 33.5 µM in [7]; 96.7 µM in assay [8]; 30.1 µM in assay [9]; 38.6 µM in assay [10]; 33.9 µM in assay [11]; 34.4 µM in assay [13]. In addition, the figures for the TGI in assay [14] and in [15] were 32.2 µM and 53.7 µM, respectively.
Consider `O=C(NCCCN1CCN(CCCNC(=O)c2cc(-c3ccccc3)nc3ccccc23)CC1)c1cc(-c2ccccc2)nc2ccccc12`, for which the TGI in [1] is 33 µM; in assay [2], 29.7 µM; in assay [3], 28.5 µM; in [4], 3.98 µM; in assay [5] it was greater than 60.2 µM; in assay [6] it was greater than 58.4 µM. Moreover, the TGI in assay [7] was 20.8 µM; in [8] it was 3.99 µM; in assay [9], 26 µM; in assay [10] it was greater than 52.6 µM; in [11] it was greater than 71.3 µM; in assay [12], greater than 72.3 µM. For the same compound, the TGI in assay [13] stood at 3.21 µM; in assay [14], 41.3 µM; in assay [15] it was 33.9 µM.
`O=C(O)c1ccccc1/C=N\N(CCO)C1=NCCN1`: the TGI in assay [1], in assay [2], in assay [3], in assay [4], in [16] and in assay [5] was greater than 100 µM in each case. Moreover, the TGI in [6], in assay [8], in assay [9], in [10], in assay [11] and in assay [13] was greater than 100 µM in each case. Further, the TGI in [14] and in assay [15] was greater than 100 µM throughout.
As to `CC1=C(N2CC2)C(=O)C(C)=C(N2CC2)C1=O`, the TGI came to 8.33 µM in assay [1]; 2.3 µM in assay [2]; 0.988 µM in [3]; 0.363 µM in assay [4]; 5.72 µM in assay [16]; 1.08 µM in assay [5]. The TGI was determined as 2.02 µM in assay [6]; 1.37 µM in assay [7]; 1.26 µM in assay [8]; 1.57 µM in assay [10]; 0.822 µM in [11]; 0.0574 µM in assay [12]. Moreover, the TGI was determined as 0.541 µM in assay [13], 1.09 µM in assay [14] and 15.5 µM in assay [15].
Turning to `CCOC(=O)c1cc(C2CCN(Cc3ccccc3)C2=O)c(C(=O)/C=C(/C)N)[nH]1` (configuration not stated), the TGI in assay [1] is greater than 100 µM; in [2], greater than 100 µM; in assay [3] it was 97.5 µM; in [4] it was greater than 100 µM; in [5], greater than 100 µM; in assay [6] it was greater than 100 µM. The TGI in [7], in assay [8], in [9], in assay [10], in assay [11] and in assay [12] was greater than 100 µM each time. In addition, the TGI in [13], in [14] and in assay [15] was greater than 100 µM throughout.
For `Cc1nnc(N)nc1C/C=C/C(C)Sc1ccc(Cl)cc1` (configuration not stated), the TGI in assay [1] was greater than 51 µM; in assay [2], greater than 56.5 µM; in [3], 68.8 µM; in [4] it was 22.9 µM; in assay [5], 39.9 µM; in assay [6], 48 µM. Also, the TGI was 33.9 µM in assay [7]; 45 µM in assay [8]; 17.8 µM in assay [9]; 19.2 µM in assay [10]; 49.8 µM in assay [11]; greater than 60.3 µM in [12]. Further, the TGI was determined as 33.7 µM in [13], 25.4 µM in assay [14] and 42.4 µM in [15].
`Cc1cc2nc3c(C#N)c4c(c(Cl)n3c2cc1C)CCC4`: the TGI was 37.4 µM in [2]; 95.5 µM in [3]; 50.1 µM in [4]; 53.3 µM in assay [5]; greater than 100 µM in [6]; 35.9 µM in assay [7]. Also, the TGI was 88.9 µM in assay [8]; greater than 100 µM in assay [10]; greater than 100 µM in [11]; 46.2 µM in assay [12]; greater than 100 µM in [13]; greater than 100 µM in assay [14]. For the same compound, the TGI in assay [15] is greater than 100 µM.
